Molecular target: T1, TON_0340 (Thermococcus onnurineus, UniProt B6YTD8)
T1 construct: C-terminal CPD-(His)10 fusion auto-cleaved with phytate; E. coli BL21(DE3) RIPL; assay sample from dissolved crystals, EDTA-treated
T1 sequence (B6YTD8 1-268): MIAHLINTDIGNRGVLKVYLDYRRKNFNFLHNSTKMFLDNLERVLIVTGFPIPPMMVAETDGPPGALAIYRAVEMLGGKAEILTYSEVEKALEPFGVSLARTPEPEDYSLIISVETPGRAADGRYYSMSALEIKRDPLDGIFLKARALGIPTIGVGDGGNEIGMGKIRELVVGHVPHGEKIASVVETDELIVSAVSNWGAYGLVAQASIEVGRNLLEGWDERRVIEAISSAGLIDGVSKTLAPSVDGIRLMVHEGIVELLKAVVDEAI
Test: inorganic phosphate release (EnzChek / malachite green)
Assay type: biochemical
Conditions: 2 mM AMP, 2 mM MnCl2, 100 mM HEPES pH 7.5, 100 mM NaCl, 37°C; Mn2+-dependent

Nc1ncnc2c1ncn2[C@@H]1O[C@H](COP(=O)(O)O)[C@@H](O)[C@H]1O [AMP]
inorganic phosphate release (EnzChek / malachite green): The highest activity was observed with AMP

Reference: paper PMC5132392, “Identification of a Highly Conserved Hypothetical Protein TON_0340 as a Probable Manganese-Dependent Phosphatase” (PLoS ONE, 2016)
